Measured values as given in US20260166017A1, “SARM1 INHIBITORS FOR USE IN THERAPY AND COSMETICS” (priority 2022, published 2026).
“Also recorded” adds a separate entry of the source.

Tests used:
[1] = LeWitt, 1980; Loreto et al., 2021; cited from earlier work
HEK293 cells = experiment: Intracellular NAD+ in HEK293 cells (NAD-glo assay); type: cell-based, Human; details: 100 μM vacor, 72 hours
Description: Schwann and HEK 293T cells were treated with 100 μM vacor, 250 μM 3AP, or vehicle controls, and collected in media at Oh and 72 h after treatment. Protein was extracted using Pierce™ IP Lysis Buffer supplemented with cOmplete™ Mini EDTA-free Protease Inhibitor Cocktail, and a BCA assay carried out to determine protein concentration. All samples were diluted to 0.5 μg/μL. The NAD-glo assay was performed according to manufacturer's instruction of the NAD^+/NADH-Glo™ assay by Promega (G9071). In short, 25 μL of sample were incubated with 12.5 μL 0.4M HCl at 60° C. for 15 min, before 12.5 μL 0.5M Tris base were added. 10 μL NAD^+ standards or sample were then mixed with 10 μL NAD-glo master mix (1 ml luciferin detection reagent, 5 μl reductase, 5 μl reductase substrate, 5 μl NAD^+ cycling enzyme, 25 μl NAD^+ cycling substrate) and incubated at RT for 40 min. Luminescence was read using a GloMax® Explorer microplate reader and NAD^+ concentrations determined relative to a NAD^+ standard curve.

[2] = system: freshly plated P2 mouse Schwann cells; experiment: Cell death in freshly plated P2 mouse Schwann cells (propidium iodide, DAPI, SOX10); type: cell-based; details: 100 μM vacor for 72 hours vs DMSO
Description: Freshly plated mouse Schwann cells were obtained from P2 sciatic and brachial nerves. Nerves were digested with trypsin and collagenase, centrifuged and plated on laminin/Poly-L-lysine coated glass coverslips in defined medium as previously described (Arthur-Farraj et al., 2011).
Sciatic and optic nerves were dissected from Wt and Sarm1 KO mice and directly embedded in O.C.T. compound, without fixing, and stored at −80° C. until ready for cryosectioning. Cryosections at 5 μm thick were collected onto SuperFrost plus slides. These slides were post-fixed in 4% paraformaldehyde (PFA) at room temperature for 10 mins followed by three washes of 5 mins each with 1×PBS. The slides were then immersed in 100% methanol at −20° C. for 10 mins, followed by three washes of 5 mins each with 1×PBS. The slides were then blocked in 5% horse serum (HS)/0.2% Triton x-100/PBS for 30 mins at room temperature. Primary antibodies were diluted in blocking solution and slides were incubated overnight at 4° C. The following day, the slides were washed once for 5 mins with 1×PBS, twice for 5 mins with 0.1% tween/PBS and finally once again for 5 mins with 1×PBS before adding secondary antibodies. The corresponding secondary antibodies were diluted at 1:500 along with DAPI at 1:2000 for 2 hrs at room temperature and kept in the dark. […]

neuronal cultures = details: Loreto et al., 2021, Wu et al.; cited from earlier work
Rat oligodendrocytes = experiment: Cell death / SOX10 positive cell survival in cultured rat oligodendrocytes; type: cell-based; details: 100 μM vacor for 72 hours vs DMSO
Description: Sprague-Dawley neonatal (sp7) rat pups were decapitated following lethal overdose with pentobarbital. The brains were dissected and submerged into Hibernate-A low fluorescence media (Transnetyx Tissue, #HALF). The tissue was cut into 1-mm^3 pieces, washed in HBSS^−/− (Gibco, #11039047), then spun down at 100 g for 1 min at room temperature. To digest the tissue, the tissue was incubated in 34 U/mL papain (Worthington, #LS003127) and 40 μg/mL DNase I (Sigma, #D5025) in HALF, and incubated on an orbital shaker (55 rpm) for 40 min at 37° C. […] To collect the A2B5+ fraction, the MACS MS column (Miltenyi, #130-042-201) was removed from the magnetic stand (Miltenyi, #130-042-102) and cells were flushed from the column with 1 ml of prewarmed OPC medium (DMEM F/12 containing N-Acetyl cysteine (60 μg/ml, Sigma, #A9165), human recombinant insulin (10 ug/ml), sodium pyruvate (1 mM, Thermo Fisher, #11360-070), apo-transferrin (50 μg/ml, Sigma, #T2036), putrescine (16.1 μg/ml, Sigma, #P7505), sodium selenite (40 ng/ml, Sigma, #S5261), progesterone (60 ng/ml, Sigma, #P0130), bovine serum albumin (330 μg/ml, Sigma, #A4919). Cells were counted, then seeded at a density of 20,000 cells/cm^2 on poly-D-lysine (5 μg/ml PDL, Sigma #P6407) coated plates. […]

O=C(NCc1cccnc1)Nc1ccc([N+](=O)[O-])cc1 [vacor, Vacor]
neurotoxic effects in humans [1]: severe neurotoxic effects | Intracellular NAD+ levels (HEK293 cells): decrease | cell death judged by propidium iodide (P.I) and DAPI nuclear staining and SOX10 immunocytochemistry [2]: completely insensitive; also recorded: no cell death | effect of high dose on neuronal cultures (neuronal cultures): axonal degeneration and cell death within hours | cell death judged by DAPI nuclear staining and SOX10 immunocytochemistry (Rat oligodendrocytes): died within hours; also recorded: substantial cell death
